# From patent publication US20210113563A1, “4-(4-CYANO-2-THIOARYL)DIHYDROPYRIMIDINONES FOR TREATING CHRONIC WOUNDS” (pH Pharma Co., Ltd., priority 2015, published 2021)
# pEC50: −log10 of the molar value.
# What was measured:
# [1] = Exposure in plasma and skin of diabetic mouse (db/db); format: in vivo; details: for Total concentration in skin: day 8; for Total concentration in plasma, geo mean: day 8, 20 h after last treatment
# Description: Upon scarification on day 8, 20 h after the last treatment, arterial blood samples were collected into EDTA citrate serum sample tubes for LC/MSMS based quantification of compound exposure.
# [2] = system: wounds of diabetic mouse (db/db); test: Visual wound size reduction in diabetic mouse (db/db); format: in vivo
# Description: The wounding was conducted in the following manner: • 1) db/db mice were anaesthetized with Isoflurane/O2/N2O (2.5-3.5%/800 ml/min/500 ml/min), and placed on a heating pad upon induction after application of eye ointment • 2) mice were shaven and Pilca was applied for 3-5 minutes to remove the fur and fine hairs 3) two dorsal full thickness wounds were placed with a 8 mm punch biopsie tool after wiping the skin with ethanol and wound size was measured immediately • 4) mice were treated with Temgesic and kept on warming pad until recovery from anaesthesia
# Wound Size Measurement: Wound size was measured with a sliding caliper. […] Assuming an elliptic shape, wound area was calculated with:
# Wound size reduction on day i was calculated from the initial area on day 0 post wounding: […]
# [3] = system: myeloperoxidase (MPO); test: Myeloperoxidase (MPO) activity in wound tissue of diabetic mice (db/db); format: in vivo; details: db/db mouse
# Description: MPO determination is based on the oxidation of H2O2 by a peroxidase in the presence of TMB (3,3′5,5′-Tetramethylbenzidin). The results were quantified with a human MPO standard curve prepared in homogenate buffer, which also serves as a blank. Samples were diluted fifteen fold in homogenate buffer. Of each sample, standard and blank 20 μL were dispensed in a clear flat bottom MWP at RT. Following that 100 μL of fresh 0.2 mM TMB in AC-POX buffer are added and the reaction was started by adding 12.5 μL of 1 mM H2O2 in AC-POX buffer. After 5-10 min 22.5 μL of 1 N H2SO4 was added to stop the reaction and plates were vortexed briefly to evenly distribute the newly developed yellow color. […] Absorption was measured at k=450 nm and the amount of MPO in samples was calculated from standard curve in SoftmaxPro 6.4 after subtracting the blank.
# To assess neutrophil activity in wound tissue samples, myeloperoxidase activity was measured.
# [4] = system: collagen (hydroxyproline); test: Hydroxyproline (HYP) assay in skin lesions of adriamycin-treated rats; format: in vivo, rat; details: 10 mg/kg BW o.d. p.o.
# Source text: (§1) On day 2, 4, 7, 9, 11, 14, 16, 18, 21, 23, 25 and 28 • inhalation anesthesia: isoflurane, O2, N2O mixture • size measurement of the depot and photos Day 28 section • inhalation anesthesia: isoflurane, O2, N2O mixture under anesthesia and then dislocation of the cervical spine • size measurement of the depot and the incision wound and photos • Former depots were harvested by punch biopsies • Wound 1/custodian of any animal->in liquid N2 for peroxidase and elastase determination • Wound 2/custodian of any animal->in liquid N2 for Hydroxyproline determination • Wound 3/custodian of any animal->in formalin fixed for histological studies • Samples were stored for further procedures at −80° C.
# [5] = system: collagen type I and collagen type III in ulcer tissue; test: Collagen type I and III in chronic skin lesions of adriamycin-treated rats, Sirius red staining; format: in vivo, rat; details: for Collagen type I / Collagen type III: adriamycin-treated rats, 10 mg/kg BW o.d.
# Source text: as §1
# After sufficient time in formalin (24-72 h), the samples were trimmed to an appropriate size and transferred to histology-cassettes. The histo-cassettes are watered 2 h under running tap water at room temperature. The drainage and waxing was done using a Leica ASP200, the samples were embedded in paraffin, sectioned by microtome and mounted on slides. The paraffin sections were stained depending on the question (Ladewig or Sirius Red)
# (§2) To assess the content of collagen type I (mature form) and collagen type III (newly formed) in ulcer tissue, Sirius red staining was performed according to standard protocols.
# [6] = system: collagen type I and collagen type III in ulcer tissue; test: Collagen type I and III in lesions of pressure-applied mouse skin, Sirius red staining; format: in vivo; details: for Collagen type I / Collagen type III: pressure-applied mouse skin, day 3 to 15, Sirius red
# Source text: OBJECTIVE: Pressure ulcers (decubitus ulcers) represents a large subgroup of chronic wounds. They mainly affect aged or neurologically immobilized patients. Continuous pressure at discrete skin areas leads to long-lasting hard-to-heal ulcer wounds that are also characterized by neutrophil infiltration. The presented experiment was set up to mimic this condition by applying magnet-induced pressure onto mouse skin folds. Since the area of emerging wounds is variable in form and size, its usability as a readout parameter is technically limited.
# METHODS: Magnet placement leads to wounds with dermal neutrophil infiltration and delayed wound healing. Three ischemia-reperfusion (IR) cycles (12 hours on, 12 hours off) were applied in each animal to initiate decubitus ulcer formation.
# On day 0 (start of experiment), the mice were weighed and put in anesthesia using an isoflurane/O2/N2O mixture. Back and flank skin was shaven. Skin was moistened with tap water and depilated using Pilca cream. Skin was lifted at the back midline and one magnet was placed on each side of the skin fold so that they were exactly opposite to each other. The magnets were left in place for 12 hours, then taken off for 12 hours. This cycle was repeated three times in total.
# After sacrificing (day 15) wounds were excised using a 10 mm punch scalpel.
# as §2
structure (smiles),measurement,setting,value
"CC1=C(C#N)[C@@H](c2ccc(C#N)cc2S(C)(=O)=O)N(C)C(=O)N1c1cccc(C(F)(F)F)c1 [Example 5, (4 S)-4-[4-Cyano-2-(methylsulfonyl)phenyl]-3,6-dimethyl-2-oxo-1-[3-(trifluoromethyl)phenyl]-1,2,3,4-tetrahydropyrimidine-5-carbonitrile]",Total concentration in skin,[1]; 0.03 mg/kg BW o.d. p.o.,0.01 µM
same,"Total concentration in plasma, geo mean",[1]; 0.03 mg/kg BW o.d. p.o.,0.0029 µM
same,Total concentration in skin,[1]; 0.1 mg/kg BW o.d. p.o.,0.03 µM
same,"Total concentration in plasma, geo mean",[1]; 0.1 mg/kg BW o.d. p.o.,0.011 µM
same,Total concentration in skin,[1]; 0.3 mg/kg BW o.d. p.o.,0.06 µM
same,"Total concentration in plasma, geo mean",[1]; 0.3 mg/kg BW o.d. p.o.,0.027 µM
same,Total concentration in skin,[1]; 1.0 mg/kg BW o.d. p.o.,0.16 µM
same,"Total concentration in plasma, geo mean",[1]; 1.0 mg/kg BW o.d. p.o.,0.067 µM
same,Total concentration in skin,[1]; 3.0 mg/kg BW o.d. p.o.,0.30 ± 0.06 µM
same,"Total concentration in plasma, geo mean",[1]; 3.0 mg/kg BW o.d. p.o.,0.13 µM
same,Total concentration in skin,[1]; 10.0 mg/kg BW o.d. p.o.,0.54 µM
same,"Total concentration in plasma, geo mean",[1]; 10.0 mg/kg BW o.d. p.o.,0.17 µM
same,Visual wound size,[2]; 0.03 mg/kg BW o.d. p.o.,98.5 % initial area at day 8
same,Visual wound size,[2]; 0.1 mg/kg BW o.d. p.o.,86.07 % initial area at day 8
same,Visual wound size,[2]; 0.3 mg/kg BW o.d. p.o.,72 % initial area at day 8
same,Visual wound size,[2]; 1.0 mg/kg BW o.d. p.o.,71.16 % initial area at day 8
same,Visual wound size,[2]; 3.0 mg/kg BW o.d. p.o.,68.1 % initial area at day 8
same,Visual wound size,[2]; 10.0 mg/kg BW o.d. p.o.,54.85 % initial area at day 8
same,pEC50,"[2]; in vivo, read-out: Potency (EC50) to improve wound size reduction",8.35
same,Neutrophil dependent inflammatory activity in wound tissue (MPO activity),[3]; 0.03 mg/kg BW o.d.,0.00361 Peroxidase Activity/μg Protein
same,Neutrophil dependent inflammatory activity in wound tissue (MPO activity),[3]; 0.1 mg/kg BW o.d.,0.00029 Peroxidase Activity/μg Protein
same,Neutrophil dependent inflammatory activity in wound tissue (MPO activity),[3]; 0.3 mg/kg BW o.d.,0.00043 Peroxidase Activity/μg Protein
same,Neutrophil dependent inflammatory activity in wound tissue (MPO activity),[3]; 1.0 mg/kg BW o.d.,0.00043 Peroxidase Activity/μg Protein
same,Neutrophil dependent inflammatory activity in wound tissue (MPO activity),[3]; 3.0 mg/kg BW o.d.,0.00027 Peroxidase Activity/μg Protein
same,Neutrophil dependent inflammatory activity in wound tissue (MPO activity),[3]; 10.0 mg/kg BW o.d.,0.00016 Peroxidase Activity/μg Protein
same,Inhibition of MPO activity in wound tissue (in words),[3]; from 0.1 mg/kg,potently and effectively inhibited MPO activity in wound tissue
same,Hydroxyproline,[4],5169 (n = 10)
same,Collagen type I,"[5]; d 14-28, Sirius red",9.7
same,Collagen type III,"[5]; d 14-28, Sirius red",46.69
same,Collagen type I,"[5]; d 21-37, Sirius red",8.8
same,Collagen type III,"[5]; d 21-37, Sirius red",72.23
same,Collagen type III in Adriamycin-induced lesions (in words),"[5]; rats, after two weeks of treatment",strong increase of collagen type III
same,Collagen type III in pressure-induced lesions (in words),"[6]; mice, after 12 days of treatment",significant increase of collagen type III
same,Collagen type I,[6]; 1 mg/kg BW o.d.,1.1
same,Collagen type III,[6]; 1 mg/kg BW o.d.,30.2
same,Collagen type I,[6]; 10 mg/kg BW o.d.,0.7
same,Collagen type III,[6]; 10 mg/kg BW o.d.,49.8
